# From patent US20170122958A1, “Enzymes Functional Probes” (University of Dundee, priority 2013, published 2017)
# “Also recorded” adds a separate entry of the source. Where two headings read alike, the source gives them in different places.
# Legend:
# Brd2(1)*(Trp097His) = target: T1, Brd2(1)*(Trp097His) (Homo sapiens, UniProt P25440, W97H); assay: DSF thermal shift; format: binding; conditions: mutant
# T1 construct: Plasmids of the eight single BET bromodomain constructs Brd2(1), Brd2(2), Brd3(1), Brd3(2); His6 (N); made in house; host or cells: E. coli BL21(DE3)
# Brd2(1) [1] = target: T2, Brd2(1) (Homo sapiens, UniProt P25440); assay: DSF thermal shift; format: binding; conditions: wild type
# T2 construct: Plasmids of the eight single BET bromodomain constructs Brd2(1), Brd2(2), Brd3(1), Brd3(2); His6 (N); made in house; host or cells: E. coli BL21(DE3)
# Brd2(2) [2] = target: T3, Brd2(2) (Homo sapiens, UniProt P25440); assay: DSF thermal shift; format: binding; conditions: wild type
# T3 construct: Plasmids of the eight single BET bromodomain constructs Brd2(1), Brd2(2), Brd3(1), Brd3(2); His6 (N); made in house; host or cells: E. coli BL21(DE3)
# Brd2(2)*(Trp370Phe) [3] = target: T4, Brd2(2)*(Trp370Phe) (Homo sapiens, UniProt P25440, W370F); assay: DSF thermal shift; format: binding; conditions: mutant
# T4 construct: Plasmids of the eight single BET bromodomain constructs Brd2(1), Brd2(2), Brd3(1), Brd3(2); His6 (N); made in house; host or cells: E. coli BL21(DE3)
# Brd2(1)*(Trp097Phe) = target: T5, Brd2(1)*(Trp097Phe) (Homo sapiens, UniProt P25440, W97F); assay: DSF thermal shift; format: binding; conditions: mutant
# T5 construct: Plasmids of the eight single BET bromodomain constructs Brd2(1), Brd2(2), Brd3(1), Brd3(2); His6 (N); made in house; host or cells: E. coli BL21(DE3)
# Brd2(2)*(Trp370His) = target: T6, Brd2(2)*(Trp370His) (Homo sapiens, UniProt P25440, W370H); assay: DSF thermal shift; format: binding; conditions: mutant
# T6 construct: Plasmids of the eight single BET bromodomain constructs Brd2(1), Brd2(2), Brd3(1), Brd3(2); His6 (N); made in house; host or cells: E. coli BL21(DE3)
# Brd2(2)*(Trp370Phe) [4] = target: T4, Brd2(2)*(Trp370Phe); assay: ITC reverse titration of protein into compound; format: binding
# Procedure: For this reason, these molecules were not selected for further experimentation. […] Results can be seen in FIG. 7.
# (§1) ITC experiments were carried out on a ITC200 instrument from MicroCal™ Experiments were conducted at 3 different temperatures 15° C., 25° C. and 30° C., while stirring at 1000 rpm. Buffers of proteins, peptide and compounds were matched to 20 mM HEPES pH 7.5 at 25° C. and 100 mM NaCl. Frozen protein was buffer exchanged as described for the DSF experiments. Each titration comprised 1 initial injection of 0.4 μl lasting 0.8 s, followed by 19 injections of 2 μl lasting 4 s each at 2 min intervals. The initial injection was discarded during data analysis. Standard and reverse titrations were conducted depending on the binding partners.
# Reverse titrations were conducted to test the binding of the known ligands and the novel chemical probes to the wild types and the mutants. Experiments were carried out either at 25° C. or 30° C. […]
# (§2) All the data was fitted to a single binding site model using the Microcal LLC ITC200 Origin software provided by the manufacturer to yield enthalpies of binding (ΔH) and binding constants (Kas). Further thermodynamic parameters were calculated from these values (changes in entropy ΔS, changes in free energy AG and dissociation constants (Kds)).
# Brd2(2) [5] = target: T3, Brd2(2); assay: ITC reverse titration of protein into compound; format: binding; conditions: ITC 25° C.
# Procedure: as §1
# (§3) Reverse titrations were conducted to test the binding of the known ligands and the novel chemical probes to the wild types and the mutants. Experiments were carried out either at 25° C. or 30° C. […] In cases where the compound was solubilized in dimethyl sulfoxide, DMSO concentration was adjusted to 1% both in the syringe and in the cell.
# as §2
# Brd2(2)*(Val376Ala) = target: T7, Brd2(2)*(Val376Ala) (Homo sapiens, UniProt P25440, V376A); assay: DSF thermal shift; format: binding; conditions: mutant
# T7 construct: Plasmids of the eight single BET bromodomain constructs Brd2(1), Brd2(2), Brd3(1), Brd3(2); His6 (N); made in house; host or cells: E. coli BL21(DE3)
# Brd2(1)*(Val103-Ala) = target: T8, Brd2(1)*(Val103-Ala) (Homo sapiens, UniProt P25440, V103A); assay: DSF thermal shift; format: binding; conditions: mutant
# T8 construct: Plasmids of the eight single BET bromodomain constructs Brd2(1), Brd2(2), Brd3(1), Brd3(2); His6 (N); made in house; host or cells: E. coli BL21(DE3)
# Solubility observations = conditions: observation in words
# Brd2(2)*(Met438-Ala) [6] = target: T9, Brd2(2)*(Met438-Ala) (Homo sapiens, UniProt P25440, M438A); assay: ITC reverse titration of protein into compound; format: binding
# T9 construct: Plasmids of the eight single BET bromodomain constructs Brd2(1), Brd2(2), Brd3(1), Brd3(2); His6 (N); made in house; host or cells: E. coli BL21(DE3)
# Procedure: as §1
# Reverse titrations were conducted to test the binding of the known ligands and the novel chemical probes to the wild types and the mutants. […]. In cases where the compound was solubilized in dimethyl sulfoxide, DMSO concentration was adjusted to 1% both in the syringe and in the cell.
# as §2
# Brd2(2)*(Met438-Ala) [7] = target: T9, Brd2(2)*(Met438-Ala); assay: DSF thermal shift; format: binding; conditions: mutant
# Method in brief: (§4)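 Proteins buffer-exchanged into 20 mM HEPES pH 7.5, 100 mM NaCl; SYPRO Orange reporter. Protein 2 or 6 µM with compound 10 or 30 µM (histone peptide 100 or 300 µM) on two instruments, ramped from 37 or 25 °C to 95 °C, triplicates. Tm from first-derivative maximum of sigmoidal fits.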
# Brd2(1)*(Met165-Leu) = target: T10, Brd2(1)*(Met165-Leu) (Homo sapiens, UniProt P25440, M165L); assay: DSF thermal shift; format: binding; conditions: mutant
# T10 construct: Plasmids of the eight single BET bromodomain constructs Brd2(1), Brd2(2), Brd3(1), Brd3(2); His6 (N); made in house; host or cells: E. coli BL21(DE3)
# Method in brief: as §4
# Brd2(2)*(Met438-Leu) = target: T11, Brd2(2)*(Met438-Leu) (Homo sapiens, UniProt P25440, M438L); assay: DSF thermal shift; format: binding; conditions: mutant
# T11 construct: Plasmids of the eight single BET bromodomain constructs Brd2(1), Brd2(2), Brd3(1), Brd3(2); His6 (N); made in house; host or cells: E. coli BL21(DE3)
# Method in brief: as §4
# Brd2(1)*(Met165Ala) [8] = target: T12, Brd2(1)*(Met165Ala) (Homo sapiens, UniProt P25440, M165A); assay: ITC reverse titration of protein into compound; format: binding; design: Plasmids of the eight single BET bromodomain constructs Brd2(1), Brd2(2), Brd3(1), Brd3(2), Brd4(1), Brd4(2), Brdt(1) and Brdt(2); His6 (N); made in house; host or cells: E. coli BL21(DE3)
# Procedure: as §1
# Reverse titrations were conducted to test the binding of the known ligands and the novel chemical probes to the wild types and the mutants. Experiments were carried out either at 25° C. or 30° C. For strong binders, a concentration of 150-200 μM of the protein was injected into a solution of 15-20 μM compound. […] In cases where the compound was solubilized in dimethyl sulfoxide, DMSO concentration was adjusted to 1% both in the syringe and in the cell.
# as §2
# Brd2(1) [9] = target: T2, Brd2(1); assay: ITC reverse titration of protein into compound; format: binding; conditions: ITC 25° C.; read-out: Kd wild type Brd2(1)
# Procedure: as §1, §3, §2
# Brd2(1)*(Met165Ala) [10] = target: T12, Brd2(1)*(Met165Ala); assay: DSF thermal shift; format: binding; design: Plasmids of the eight single BET bromodomain constructs Brd2(1), Brd2(2), Brd3(1), Brd3(2); His6 (N); made in house; host or cells: E. coli BL21(DE3); conditions: mutant
# Method in brief: as §4
# [11] = test system: Brd2 methionine to alanine mutants; assay: DSF thermal shift, pooled statement; format: binding, human; conditions: span over both mutants
# Procedure: (§5) DSF assays were performed on a LightCycler®480 from Roche or a Mx3005P Real Time PCR machine from Stratagene. Prior to DSF assays, frozen proteins were buffer exchanged using Vivaspin®6 concentrators with a 10 kDa cutoff on a Centrifuge 5430 from Eppendorf at a speed of 6000×g to remove glycerol and to buffer the proteins in 20 mM HEPES pH 7.5 at 25° C. and 100 mM NaCl. SYPRO®Orange from Invitrogen Molecular Probes® was used as a reporter dye to monitor the denaturing process of the proteins. Samples were assayed on a 96-well plate with final protein concentrations of 2 μM for the LightCycler®480 and 6 μM for Mx3005P. […] The temperature was raised with a step of 0.6° C. per minute from 37° C. to 95° C. with the LightCycler®480 collecting 39 measurements per ° C., and 1° C. per minute from 25° C. to 95° C. with Mx3005P, collecting fluorescence readings at the end of each interval. […]
# (§6) Collected data was analysed by IGOR Pro 6, a scientific software tool from Wave Metrics, Inc. Analysis was done following the recommendations of Niesen et al.. Fluorescence intensity was plotted as a function of temperature, generating a sigmoidal curve described by a two-state transition from folded to unfolded protein. […]
# Brd2 wild types = assay: DSF thermal shift, pooled statement; format: binding, human; conditions: span over Brd2(1) and Brd2(2)
# Procedure: as §5, §6
# T3 sequence (P25440 344-453 limits assumed): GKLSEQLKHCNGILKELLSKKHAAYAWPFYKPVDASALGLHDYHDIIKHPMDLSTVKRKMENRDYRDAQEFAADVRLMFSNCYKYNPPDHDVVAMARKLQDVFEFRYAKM
# T9 sequence (P25440 344-453 M438A limits assumed): as the sequence (P25440 344-453 limits assumed) above, with M95A counted along it
# T2 sequence (P25440 74-180 limits assumed): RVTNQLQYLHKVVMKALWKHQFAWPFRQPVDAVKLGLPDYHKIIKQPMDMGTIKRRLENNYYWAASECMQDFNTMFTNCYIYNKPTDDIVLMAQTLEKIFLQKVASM
# T12 sequence (P25440 74-180 M165A limits assumed): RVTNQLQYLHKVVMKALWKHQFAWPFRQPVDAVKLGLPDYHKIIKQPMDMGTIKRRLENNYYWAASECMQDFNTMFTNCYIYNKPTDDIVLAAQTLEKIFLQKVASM
# T4 sequence (P25440 344-453 W370F limits assumed): as the sequence (P25440 344-453 limits assumed) above, with W27F counted along it
# T1 sequence (P25440 74-180 W97H limits assumed): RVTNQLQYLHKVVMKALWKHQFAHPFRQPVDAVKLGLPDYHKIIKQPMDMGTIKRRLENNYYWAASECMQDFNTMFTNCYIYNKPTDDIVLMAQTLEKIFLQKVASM
# T10 sequence (P25440 74-180 M165L limits assumed): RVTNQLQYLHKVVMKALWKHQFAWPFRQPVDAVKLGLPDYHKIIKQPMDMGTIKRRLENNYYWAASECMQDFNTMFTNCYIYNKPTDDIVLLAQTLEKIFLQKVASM
# T6 sequence (P25440 344-453 W370H limits assumed): as the sequence (P25440 344-453 limits assumed) above, with W27H counted along it
# T8 sequence (P25440 74-180 V103A limits assumed): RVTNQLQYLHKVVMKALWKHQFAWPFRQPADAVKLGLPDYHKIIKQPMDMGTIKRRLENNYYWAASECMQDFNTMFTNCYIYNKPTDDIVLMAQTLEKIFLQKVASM
# T11 sequence (P25440 344-453 M438L limits assumed): as the sequence (P25440 344-453 limits assumed) above, with M95L counted along it
# T5 sequence (P25440 74-180 W97F limits assumed): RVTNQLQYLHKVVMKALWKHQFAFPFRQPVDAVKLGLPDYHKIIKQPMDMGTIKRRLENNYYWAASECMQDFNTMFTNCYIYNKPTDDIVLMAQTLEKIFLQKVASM
# T7 sequence (P25440 344-453 V376A limits assumed): as the sequence (P25440 344-453 limits assumed) above, with V33A counted along it
compound,measurement,setting,value
COC(=O)CC1N=C(c2cccc3[nH]ccc23)c2cc(OC)ccc2-n2c(C)nnc21 (centres unmarked) [Compound 18],ΔTm Brd2(1)*(Tryp097-His),Brd2(1)*(Trp097His),0.6 ± 0.3 K
same,ΔTm Brd2(1),Brd2(1) [1],6.8 ± 0.6 K
same,ΔTm Brd2(2),Brd2(2) [2],7.7 ± 0.2 K
same,ΔTm Brd2(2)*(Tryp370-Phe),Brd2(2)*(Trp370Phe) [3],5.1 ± 0.1 K
same,ΔTm Brd2(1)*(Tryp097-Phe),Brd2(1)*(Trp097Phe),1.9 ± 0.5 K
same,ΔTm Brd2(2)*(Tryp370-His),Brd2(2)*(Trp370His),2.7 ± 0.4 K
same,Kd,Brd2(2)*(Trp370Phe) [4],~300 nM
same,Kd,Brd2(2) [5]; Kd Brd2(2),~90 nM
CCNC(=O)CC1N=C(c2ccc(Cl)cc2)c2cc(OC)cc(C)c2-n2c(C)nnc21 (centres unmarked) [Compound 19],ΔTm Brd(2)*(Val376-Ala),Brd2(2)*(Val376Ala),1.3 ± 0.1 K
same,ΔTm Brd2(1),Brd2(1) [1],0.5 ± 0.2 K
same,ΔTm Brd2(2),Brd2(2) [2],3.8 ± 0.1 K
same,ΔTm Brd2(1)*(Val103-Ala),Brd2(1)*(Val103-Ala),0.4 ± 0.3 K
"COc1ccc(OC)c(S(=O)(=O)Nc2ccc3c(c2)CN(C)C(=O)N3)c1 [Compound 51, 2,5-dimethoxy-N-(3-methyl-2-oxo-1,2,3,4-tetrahydroquinazolin-6-yl)benzenesulfonamide]",Solubility,Solubility observations,good solubility
same,Selectivity for mutant relative to wild type,"Brd2(2)*(Met438-Ala) [6]; Brd2(2) methionine to alanine mutant vs Brd2(2), ITC Kd",six fold selectivity
same,Fold higher affinity for mutant than wild type,"Brd2(2)*(Met438-Ala) [6]; Brd2(2)* methionine to alanine mutant vs wild type Brd2(1), ITC Kd",twelve fold higher affinity; also recorded: three-fold higher affinity
same,Kd,"Brd2(2)*(Met438-Ala) [6]; ITC 25° C., read-out: Kd methionine to alanine mutation of Brd2(2)",~260 nM
same,ΔTm Brd2(1),Brd2(1) [1],1.1 ± 0.2 K
same,ΔTm Brd2(2),Brd2(2) [2],2.1 ± 0.3 K
same,ΔTm Brd2(2)*(Met165-Ala),Brd2(2)*(Met438-Ala) [7],6.6 ± 0.3 K
same,ΔTm Brd2(1)*(Met165-Leu),Brd2(1)*(Met165-Leu),2.9 ± 0.2 K
same,ΔTm Brd2(2)*(Met165-Leu),Brd2(2)*(Met438-Leu),5.2 ± 0.3 K
same,Fold higher affinity for mutant than wild type,"Brd2(1)*(Met165Ala) [8]; Brd2(1)* methionine to alanine mutant vs wild type Brd2(2), ITC Kd",three-fold higher affinity; also recorded: twelve fold higher affinity
same,Selectivity for mutant relative to wild type,"Brd2(1)*(Met165Ala) [8]; Brd2(1)*(Met165Ala) vs Brd2(1), ITC Kd",six-fold selectivity
same,Kd,Brd2(1)*(Met165Ala) [8]; ITC 25° C.,~500 nM
same,Kd,Brd2(1) [9],~3200 nM
same,Kd,Brd2(2) [5]; read-out: Kd Brd2(2),~1600 nM
same,ΔTm Brd2(1)*(Met165-Ala),Brd2(1)*(Met165Ala) [10],4.6 ± 0.2 K
same,ΔTm methionine to alanine mutants of Brd2,[11],4.5-6.6 °C
same,ΔTm wild types of Brd2,Brd2 wild types,1-2 °C
